{"source": "patent US5798375A", "about": "“Treatment of arteriosclerosis and xanthoma” (Sankyo Company, Limited, priority 1995, dated 1998)", "key": {"WHHL rabbits [1]": {"system": "WHHL rabbits", "assay": "Example 2: average thickening of intima in aorta", "type": "in vivo, Male WHHL rabbits", "set-up": "Average thickening of intima, Aortic Arch, percentage against the control group / Average thickening of intima, Total Aorta, percentage against the control group: concentration or dose not given beside the values", "method": "(§1) Each test compound was administered for eight months to the rabbits in the form of an aqueous suspension (0.5% carboxymethylcellulose added). In the control group, a 0.5% carboxymethylcellulose solution only was administered.\nThe values actually measured are represented as the mean value plus or minus a standard error (μm). The numbers in parentheses represent the percentage intimal thickening against the control group. A significant difference was observed between Groups D and F at the aortic arch, and between Groups C and E and between Groups D and F over the total aorta (p<0.05) under the Mann-Whitney's U-Test.\nThe average thickening of the intima is calculated by the cross-sectional area of the aortic tunica intima one section from the arch and two sections from the thoracic and abdominal portions, divided by the length of the tunica media."}, "WHHL rabbits [2]": {"system": "WHHL rabbits", "assay": "Example 2: aortic cholesterol content", "type": "in vivo, Male WHHL rabbits", "method": "as §1\nThe aortic cholesterol content was measured The tunica media and tunica intima at the aortic arch and at the thoracic and abdominal aorta were peeled away with tweezers and cut into pieces. The pieces were extracted with a 2:1 by volume mixture of chloroform and methanol.\nThe chloroform phase was separated and evaporated to dryness and the residue was dissolved in isopropanol. The total cholesterol and the free cholesterol were measured by a conventional enzymatic method.\nData are expressed by the mean plus or minus standard error (mg/g tissue). The values in parentheses indicate the percentage against the control. A significant difference against the control group was observed by the unpaired student t-test: […]"}, "WHHL rabbits [3]": {"system": "WHHL rabbits", "assay": "Example 2: percentage area covered by lesions, aortic arch and whole aorta", "type": "in vivo, Male WHHL rabbits", "set-up": "Lesion Area, Aortic Arch, percentage against the control group / Lesion Area, Total Aorta, percentage against the control group: concentration or dose not given beside the values", "conditions": "oral, eight months", "method": "as §1\nThe values actually measured are represented by the mean value plus or minus standard error. The numbers in parentheses represent the percentage lesion area against the control group.\n*p<0.05, **p<0.01; significant difference against the control group under the [Mann-Whitney's U-Test A significant difference (p<0.05) was observed between Groups B and F, between Groups C and E and between Groups D and F at the aortic arch, and between Groups C and E over the total aorta."}, "WHHL rabbits [4]": {"system": "WHHL rabbits", "assay": "Example 2: incidence and degree of xanthoma of the four legs", "type": "in vivo, Male WHHL rabbits", "set-up": "Frequency of massive xanthoma: unit not given here", "method": "as §1\nThe incidence and the degree of xanthoma of the four legs were measured."}, "[5]": {"system": "Male New Zealand white rabbits", "assay": "Example 3: regression of established atherosclerotic lesions in the cholesterol-fed rabbit model", "type": "in vivo", "method": "The rabbits were grouped randomly (3-9 animals per group) and the test samples were administered orally for two months, while they were fed with a normolipidaemic diet. […] The results are shown in terms of the percentage of lesion area in the thoracic aorta."}, "[6]": {"assay": "Example 2: serum cholesterol in WHHL rabbits", "type": "in vivo, Male WHHL rabbits", "conditions": "Groups C and D (pioglitazone 20 mg/kg; Compound A 10 mg/kg)", "method": "as §1"}, "diabetic animal model": {"system": "diabetic animal model", "conditions": "in vivo in a diabetic animal model; cited from earlier work"}, "[7]": {"conditions": "oral, eight months, control 100 (14/14), *p < 0.05, **p < 0.01 vs control"}}, "data": [{"smiles": "CC(=NOCCOc1ccc(CC2SC(=O)NC2=O)cc1)c1ccc(-c2ccccn2)cc1", "note": "(stereo not shown) [Compound A, 5-(4-{2-[1-(4-2'-pyridyl-phenyl)ethylideneaminooxy]ethoxy}benzyl)thiazolidine-2,4-dione]", "values": [{"measurement": "suppression of intimal thickening", "setting": "WHHL rabbits [1]; combinations compared with Groups C and D", "value": "no suppression of hypertrophy"}, {"measurement": "Average thickening of intima, Aortic Arch, percentage against the control group", "setting": "WHHL rabbits [1]; number in parentheses", "value": 123, "unit": "%"}, {"measurement": "Average thickening of intima, Total Aorta, percentage against the control group", "setting": "WHHL rabbits [1]; number in parentheses", "value": 105, "unit": "%"}, {"measurement": "Average thickening of intima in aorta, Total Aorta", "setting": "WHHL rabbits [1]; oral, eight months, pravastatin 50, pioglitazone 20, Compound A 10 mg/kg, mean ± standard error, control 154 ± 33", "value": "162 ± 22", "unit": "μm"}, {"measurement": "Average thickening of intima in aorta, Aortic Arch", "setting": "WHHL rabbits [1]; oral, eight months, pravastatin 50, pioglitazone 20, Compound A 10 mg/kg, mean ± standard error, control 237 ± 63", "value": "291 ± 51", "unit": "μm"}, {"measurement": "Cholesterol level of Thoracic and Abdominal Aorta, Esterified", "setting": "WHHL rabbits [2]; mean ± standard error, control 5.3 ± 1.7", "value": "4.9 ± 0.9", "unit": "mg/g tissue"}, {"measurement": "Cholesterol Content of Aortic Arch, Esterified", "setting": "WHHL rabbits [2]; mean ± standard error, control 6.5 ± 1.4, *p < 0.05", "value": "4.5 ± 1.3", "unit": "mg/g tissue"}, {"measurement": "Cholesterol level of Thoracic and Abdominal Aorta, Free", "setting": "WHHL rabbits [2]; mean ± standard error, control 14.8 ± 2.3, *p < 0.05 vs control", "value": "9.2 ± 1.0", "unit": "mg/g tissue"}, {"measurement": "Cholesterol level of Thoracic and Abdominal Aorta, Total", "setting": "WHHL rabbits [2]; mean ± standard error, control 20.1 ± 2.3, *p < 0.05, **p < 0.02 vs control", "value": "14.0 ± 1.7", "unit": "mg/g tissue"}, {"measurement": "Cholesterol Content of Aortic Arch, Free", "setting": "WHHL rabbits [2]; mean ± standard error, control 20.6 ± 2.9", "value": "16.9 ± 1.8", "unit": "mg/g tissue"}, {"measurement": "Cholesterol Content of Aortic Arch, Total", "setting": "WHHL rabbits [2]; mean ± standard error, control 27.1 ± 3.3", "value": "21.4 ± 0.7", "unit": "mg/g tissue"}, {"measurement": "Cholesterol Content of Aortic Arch, Esterified, percentage against the control", "setting": "WHHL rabbits [2]; number in parentheses", "value": 69, "unit": "%"}, {"measurement": "Cholesterol Content of Aortic Arch, Free, percentage against the control", "setting": "WHHL rabbits [2]; number in parentheses", "value": 82, "unit": "%"}, {"measurement": "Cholesterol Content of Aortic Arch, Total, percentage against the control", "setting": "WHHL rabbits [2]; number in parentheses", "value": 79, "unit": "%"}, {"measurement": "Cholesterol level of Thoracic and Abdominal Aorta, Esterified, percentage against the control", "setting": "WHHL rabbits [2]; number in parentheses", "value": 92, "unit": "%"}, {"measurement": "Cholesterol level of Thoracic and Abdominal Aorta, Free, percentage against the control", "setting": "WHHL rabbits [2]; number in parentheses", "value": 62, "unit": "%"}, {"measurement": "Cholesterol level of Thoracic and Abdominal Aorta, Total, percentage against the control", "setting": "WHHL rabbits [2]; number in parentheses", "value": 70, "unit": "%"}, {"measurement": "Lesion Area, Aortic Arch, percentage against the control group", "setting": "WHHL rabbits [3]; number in parentheses", "value": 77, "unit": "%"}, {"measurement": "Lesion Area, Total Aorta, percentage against the control group", "setting": "WHHL rabbits [3]; number in parentheses", "value": 76, "unit": "%"}, {"measurement": "Lesion Area, Total Aorta", "setting": "WHHL rabbits [3]; pravastatin 50, pioglitazone 20, Compound A 10 mg/kg, mean ± standard error, *p<0.05, **p<0.01 vs control", "value": "38 ± 8", "unit": "%"}, {"measurement": "Lesion Area, Aortic Arch", "setting": "WHHL rabbits [3]; pravastatin 50, pioglitazone 20, Compound A 10 mg/kg, mean ± standard error, control 82 ± 5, *p<0.05, **p<0.01 vs control", "value": "63 ± 9", "unit": "%"}, {"measurement": "Frequency of massive xanthoma", "setting": "WHHL rabbits [4]; control 57, *p < 0.05, **p < 0.01 vs control", "value": 21}, {"measurement": "incidence of xanthoma", "setting": "WHHL rabbits [4]; forelegs and hindlegs", "value": "slightly less frequent incidence of xanthoma"}, {"measurement": "Distribution of severity of lesion: (-) no lesions", "setting": "WHHL rabbits [4]; number of legs, control 0", "value": 3}, {"measurement": "Distribution of severity of lesion: (+++) severe lesion", "setting": "WHHL rabbits [4]; number of legs, control 6", "value": 0}, {"measurement": "Distribution of severity of lesion: (++) moderate lesion", "setting": "WHHL rabbits [4]; number of legs, control 10", "value": 6}, {"measurement": "Distribution of severity of lesion: (+) slight lesion", "setting": "WHHL rabbits [4]; number of legs, control 12", "value": 19}, {"measurement": "Incidence of xanthoma, Forelegs", "setting": "WHHL rabbits [4]; [7]", "value": 93, "unit": "%"}, {"measurement": "Incidence of xanthoma, Hindlegs", "setting": "WHHL rabbits [4]; [7]", "value": 86, "unit": "%"}, {"measurement": "Incidence of xanthoma, Total", "setting": "WHHL rabbits [4]; oral, eight months, control 100 (28/28), *p < 0.05, **p < 0.01 vs control", "value": 89, "unit": "%"}, {"measurement": "Rate of lesion area, against the control group", "setting": "[5]; 2.5 mg/kg, figure in parentheses", "value": 93}, {"measurement": "Rate of lesion area", "setting": "[5]; thoracic aorta, 2.5 mg/kg oral, two months, mean ± standard error, control 29 ± 20", "value": "27 ± 7", "unit": "%"}, {"measurement": "reduction of the serum cholesterol levels", "setting": "[6]", "value": "no reduction"}]}, {"smiles": "CN(CCOc1ccc(CC2SC(=O)NC2=O)cc1)c1ccccn1", "note": "(stereo not shown) [BRL-49653, 5-{4-[2-methyl-2-(pyridin-2-ylamino)ethoxy]benzyl}-2,4-thiazolidinedione]", "values": [{"measurement": "potency higher than that of troglitazone", "setting": "diabetic animal model", "value": "about 100 times"}]}]}
